Test results as given in patent publication US8785594B2, “Glycoproteins and glycosylated cells and a method for the preparation of the same” (Glycom A/S, priority 2007, dated 2014).

Tested on: human breast cancer-cell line
Assay: Flow cytometry with fluorescent labeled-lectin of modified cells (Examples 8-10)
Type: cell-based
Details: 25 mg, PBS, 3 h at 37° C.
Procedure: α-Gal epitope-cyclic carbamate 6 (disaccharide) (25 mg) and human breast cancer-cell line 7 (2×10^6 number cell) were mixed in PBS buffer (5 mL) (see FIG. 3). The mixture was kept for 3 h at 37° C., and then the mixture was subjected to centrifugation to separate the cells from the medium.
α-Gal epitope-carbamate 6 (disaccharide) (25 mg) and human breast cancer-cell line 7 (1×10^6 number cell) were mixed in PBS buffer (5 mL) (see FIG. 3). The mixture was kept for 3 h at 37° C., and then the mixture was subjected to centrifugation to separate the cells from the medium.
α-Gal epitope-carbamate 6 (disaccharide) (25 mg) and human breast cancer-cell line 7 (5×10^5 number cell) were mixed in PBS buffer (5 mL) (see FIG. 3). The mixture was kept for 3 h at 37° C., and then the mixture was subjected to centrifugation to separate the cells from the medium.

Measured: Modification of cells shown with fluorescent labeled-lectin

O=C1NC2OC(CO)C(O)C(OC3OC(CO)C(O)C(O)C3O)C2O1 (stereo not drawn) [Compound 6, α-Gal epitope-cyclic carbamate]
modification has been proven: 1×10^6 cells | 2×10^6 cells | 5×10^5 cells
